Results taken from the supplement of paper PMC10307832.

Compound: Cn1cncc1[C@@](N)(c1ccc(Cl)cc1)c1ccc2c(c1)c(-c1cccc(Cl)c1)cc(=O)n2C [Tipifarnib]
Test: relative viability (nuclei count vs DMSO), 5 days (fraction); higher = more cells survive
Summary of the method: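 Five library-drug doses, separated by factors of √10, were pinned into 1536-well plates holding lung cancer cell lines after an overnight stay at 37 °C. Cells were fixed, permeabilised and Hoechst-stained in one step after 5 days without medium change, then imaged at 4×. Viability compares treated-well with vehicle-well nuclei, counted in MetaXpress, as a median across plates. Passing plates had control CV below 25% and at least one doubling.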

Cell Line	relative viability (0.01 µM)	relative viability (0.03162 µM)	relative viability (0.1 µM)	relative viability (0.3162 µM)	relative viability (1 µM)
NCI-H596	0.982	0.964	0.918	0.724	0.587
LCLC-97TM1	0.98	0.707	0.878	0.703	0.19
H3255	1.05	0.991	0.796	0.642	0.617
LXF-289	0.985	0.943	1	0.894	0.771
UMC-11	0.884	0.641	0.566	0.517	0.432
LC-2-ad	0.925	0.783	0.636	0.614	0.403
SK-MES-1	1.07	0.933	0.909	0.727	0.704
A-427	1.12	0.981	0.987	0.826	0.609
NCI-H322M	0.965	1.06	0.977	0.805	0.786
HCC-366	1.06	0.939	0.781	0.541	0.0913
NCI-H1975	0.914	1.11	0.979	0.705	0.59
NCI-H1437	1.01	1.01	1.02	0.917	0.634
NCI-H2009	1.03	0.876	0.766	0.697	0.575
NCI-H1651	1.02	0.992	1.05	0.992	0.877
LCLC-103H	1.06	1.04	0.927	0.817	0.756
NCI-H1666	0.99	0.858	0.858	0.8	0.795
NCI-H1734	0.92	0.865	0.789	0.559	0.448
EPLC-272H	0.995	0.761	0.818	0.618	0.238
NCI-H2023	0.868	0.665	0.502	0.458	0.288
BEN	1.2	1.03	0.926	0.853	0.752

Cell Line	relative viability (0.01 µM)	relative viability (0.03162 µM)	relative viability (0.1 µM)	relative viability (0.3162 µM)	relative viability (1 µM)
COR-L 105	0.935	0.807	0.734	0.696	0.571
ABC-1	0.959	–	0.88	0.756	0.663
HCC-15	0.846	0.835	0.699	0.551	0.271
NCI-H2170	1.04	1.03	0.992	0.789	0.8
PC-3 [JPC-3]	0.981	0.977	0.979	0.754	0.576
NCI-H1993	0.966	0.754	0.736	0.593	0.69
NCI-H358	1.04	0.918	0.834	0.729	0.416
NCI-H1563	0.992	1.02	0.876	0.935	0.794
EBC-1	0.837	0.383	0.353	0.257	0.259
NCI-H1915	0.772	0.763	0.606	0.494	0.42
RERF-LC-KJ	1.1	0.948	0.899	0.697	0.665
LOU-NH91	0.912	0.841	0.908	0.771	0.558
NCI-H2347	0.831	0.89	0.735	0.676	0.691
NCI-H2126	1.03	0.992	0.954	0.933	0.566
HCC-827	1.06	0.975	0.787	0.65	0.584
Calu-6	0.931	0.767	0.688	0.572	0.579
NCI-H3122	1.02	0.977	0.949	0.704	0.44
HOP-62	0.833	0.57	0.482	0.333	0.454
HCC-44	0.967	0.871	0.802	0.729	0.472
